Assay results as given in article PMC9570017, “Unorthodox PCNA Binding by Chromatin Assembly Factor 1” (International Journal of Molecular Sciences, 2022).

What was measured:
PCNA-Y250I = test: Isothermal titration calorimetry (ITC), wild-type PIP titrated into PCNA-Y250I; format: binding, human; settings: 23 °C, 10 mM sodium phosphate, pH 7.0, 10 mM NaCl
Experimental: Recombinant PCNA, PCNA-Y250I, and the PIP peptides (wild-type, R426D) were expressed and purified as described in the Supplementary Materials section—“Expression and purification of recombinant proteins”. The proteins were dialyzed against three 4-litre changes of ITC buffer containing 10 mM sodium phosphate, pH 7.0, and 10 mM NaCl at 4 °C overnight. The concentrations of PCNA and PIP peptides were determined by measuring tyrosine absorption at A280nm. ITC titrations of peptides into PCNA were performed at 23 °C in the ITC buffer (10 mM sodium phosphate, pH 7.0, 10 mM NaCl) using a MicroCal VP-ITC system. The concentrations of injected wild-type and mutant PIP in the syringe varied from 200 to 500 μM, whereas PCNA in the ITC sample cell varied depending on the experiment from 20 to 50 μM PCNA monomer. The protein and peptide samples were degassed before the ITC run. Data analysis was performed using the MicroCal Origin 7.0 software (OriginLab Corporation, Northampton, MA, USA) and all experiments fit the single binding site model. […]
S1. […] The C-terminal tyrosine was added to aid in peptide detection during the purification by measuring the absorbance at 280 nm. […] The next day, the saturated cells were diluted to 0.05 OD measured at A600 nm and the cells were grown at 37°C until the cells reach the mid-exponential phase of 0.6-0.8 at OD A600 nm. […]

human PCNA = target: T1, human PCNA (Homo sapiens, UniProt P12004); test: Isothermal titration calorimetry (ITC), PIP peptide titrated into wild-type PCNA; format: binding
T1 construct: His6 (C); made in house; host or cells: E. coli Codon Plus BL21(DE3) pLysS
Excerpt: The wild-type and R426D peptides were expressed as GST fusions in E. coli, purified to homogeneity (see Materials and Methods) and used in isothermal titration calorimetry (ITC) assays with human PCNA purified from E. coli.
Recombinant PCNA, PCNA-Y250I, and the PIP peptides (wild-type, R426D) were expressed and purified as described in the Supplementary Materials section—“Expression and purification of recombinant proteins”. The proteins were dialyzed against three 4-litre changes of ITC buffer containing 10 mM sodium phosphate, pH 7.0, and 10 mM NaCl at 4 °C overnight. The concentrations of PCNA and PIP peptides were determined by measuring tyrosine absorption at A280nm. ITC titrations of peptides into PCNA were performed at 23 °C in the ITC buffer (10 mM sodium phosphate, pH 7.0, 10 mM NaCl) using a MicroCal VP-ITC system. The concentrations of injected wild-type and mutant PIP in the syringe varied from 200 to 500 μM, whereas PCNA in the ITC sample cell varied depending on the experiment from 20 to 50 μM PCNA monomer. The protein and peptide samples were degassed before the ITC run. Data analysis was performed using the MicroCal Origin 7.0 software (OriginLab Corporation, Northampton, MA, USA) and all experiments fit the single binding site model.
Supplementary Materials-Expression and purification of recombinant proteins
S1. Expression and purification of GST-PIP fusion proteins in Escherichia coli Wild-type p150 PIP and R426D peptides were constructed as GST-fusion proteins with a tyrosine at the C-terminus of the peptide. The C-terminal tyrosine was added to aid in peptide detection during the purification by measuring the absorbance at 280 nm. The DNA fragments encoding the GST fusion proteins were inserted into a pGEX-TEV vector, which is essentially a modified pGEX-2T vector where the thrombin cleavage site was replaced with a TEV cleavage site. The pGEX-TEV plasmid was digested with BamHI and EcoRI and ligated to DNA fragments encoding either the p150 PIP wild-type and R426D. The plasmids pGEX-TEV-PIP wild type and pGEX-TEV-PIP R426D were con-firmed by DNA sequencing and then expressed in Escherichia coli host strain TOPP2 (Strat-agene) with 100 µg/ml ampicillin to saturation at 37°C. The next day, the saturated cells were diluted to 0.05 OD measured at A600 nm and the cells were grown at 37°C until the cells reach the mid-exponential phase of 0.6-0.8 at OD A600 nm. The cells were then in-duced with 1 mM isopropyl-D-thiogalactopyranoside (IPTG) for 4 h. Eight litres of cell culture were grown each for the wild-type and R426D mutant. The cells were then har-vested by centrifugation in an Avanti J-26XP high-performance centrifuge from Beckman Coulter with a fixed angle rotor (JLA-8.1000) at 9000 x g for 30 min at 4°C. The pellet from 1 litre cells equivalent was lysed in 10 ml of lysis buffer containing 20 mM Tris pH 7.5, 1 M NaCl, 0.2 mM EDTA, 1 mM DTT, 50 µg/ml lysozyme, 1 mM AEBSF and one tablet of cOmplete™ Mini EDTA-free Protease Inhibitor Cocktail Tablets (Roche). The cell pellet was sonicated in the lysis buffer on ice, at power output level 4 with 10 seconds pulse on and 30 seconds off at 6 watts using a Misonix 3000 Ultrasonic cell disruptor and wider probe. The lysate was clarified by centrifugation for 30 min in an Avanti J-26XP with a fixed angle rotor 25.50 at 30966 x g at 4°C. The clarified supernatant was incubated on a nutator for 6 h at 4°C with 10 ml of glutathione-Sepharose (GSH) resin (Amersham) pre-washed and equilibrated with lysis buffer. After incubation the GSH resin was pelleted, the unbound supernatant was removed, and the resin was washed thrice with lysis buffer and twice with Tobacco Etch Virus (TEV) protease buffer (20 mM sodium phosphate pH 6.5, 50 mM NaCl, 2 mM DTT). The peptide was cleaved from the GSH resin by incubating in the presence of TEV protease overnight at 4°C. The next day, the supernatant was har-vested by centrifugation, and the GSH resin was washed twice with 20 mM sodium phos- […]

[1] = Size exclusion chromatography of PCNA-Y250I; format: physicochemical
Experimental: S3. Expression and purification of wild-type and mutant PCNA proteins in Escherichia […]
PCNA wild-type and mutants were expressed and purified as previously reported. In short, wild-type or mutant plasmids in pET23-C-His6-PCNA vectors were trans-formed and expressed in Codon Plus BL21(DE3) pLysS E. coli (Stratagene) cells. Single colonies were inoculated and grown overnight in the Luria-Bertani medium containing 100 µg/mL ampicillin to saturation at 37°C. The next day the cells were diluted and grown to mid-exponential phase (0.6-0.8) at OD600 nm, and the expression was induced with 1 mM isopropyl-β-D-thiogalactopyranoside (IPTG) for 4 h. PCNA mutants were transformed and expressed in a similar way.
Cells were spun in an Avanti J-26XP high performance centrifuge from Beckman Coul-ter with a fixed angle rotor (JLA-8.1000) at 9000 x g for 30 min at 4°C and the pellets from 1 litre of cell culture were resuspended in 50 mL of lysis buffer containing 50 mM sodium phosphate pH 8.0, 150 mM NaCl, 10% glycerol, 20 mM imidazole, 0.02% nonidet P-40, 2 mM DTT. […]
The eluate was subsequently purified with a Superdex™ 200 gel filtration column (GE Healthcare) in gel filtration buffer 20 mM Tris pH 7.5, 150 mM NaCl, 1 mM DTT. The fractions corresponding to PCNA homotrimer were pooled, concentrated with an amicon concentrator with 3 kDa MWCO, quantified using absorbance at A280 nm, and stored at - […]

[2] = ITC at 296 K, 10 mM Na-phosphate (pH 7.0), 10 mM NaCl

T1 sequence (P12004 whole entry): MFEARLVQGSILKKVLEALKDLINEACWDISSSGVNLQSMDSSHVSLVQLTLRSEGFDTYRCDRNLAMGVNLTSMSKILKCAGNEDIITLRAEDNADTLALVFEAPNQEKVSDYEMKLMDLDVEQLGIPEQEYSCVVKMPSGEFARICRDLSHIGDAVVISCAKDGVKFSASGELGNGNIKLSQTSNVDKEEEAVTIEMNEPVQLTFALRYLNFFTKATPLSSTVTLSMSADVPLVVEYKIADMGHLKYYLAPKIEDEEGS

| N (stoichiometry of peptide binding per PCNA monomer) (human PCNA; [2]) | ΔG (human PCNA; [2]) | ΔH (human PCNA; [2]) | ΔS (human PCNA; [2]) | Kd (human PCNA; ITC at 296 K, 10 mM Na-phosphate (pH 7.0), 10 mM NaCl, one binding site per PCNA monomer, PIP 200 to 500 μM in syringe, PCNA 20 to 50 μM monomer) | stoichiometry (PIP per PCNA monomer) (human PCNA; ITC, 23 °C, 10 mM sodium phosphate, pH 7.0, 10 mM NaCl) | Substance | heat exchange / binding to PCNA-Y250I (PCNA-Y250I) | aggregation [1] |
| --- | --- | --- | --- | --- | --- | --- | --- | --- |
| 0.83 | -26.2 kJ/mol | -7.816 kJ/mol | 14.8 cal K^−1 mol^−1 | 24 µM | 0.83 | KAEITRFF [CAF-1 PIP wild type, wild-type p150 PIP expressed as GST fusion with C-terminal tyrosine, TEV-cleaved and purified, used for ITC] | no detectable heat exchange observed by ITC | – |
| – | – | – | – | – | – | PCNA-Y250I: PCNA mutated at the tyrosine involved in the cation-π interaction with CAF-1 p150 Arg426 | – | no evidence of aggregation |
